In patent publication EP2399598B1, “Blockade of CCL18 signaling via CCR6 as a therapeutic option in fibrotic diseases and cancer” (Universitätsklinikum Freiburg, priority 2010, dated 2014):
Entries after “also recorded” stand apart in the source; their conditions may differ.

System: CCR6
Assay: Inhibition of CCL18-induced CCR6 down-regulation on mononuclear cells (flow cytometry)
Assay type: cell-based
Settings: freshly isolated human lymphocytes/PBMNC, 20 minutes, FACS; for CCL18 induced down-regulation of CCR6 expression: CCL18 10 ng/ml plus inhibitor 100 ng/ml
Method: Freshly isolated mononuclear cells were incubated for 20 minutes with 10 ng/ml of CCL18, 100ng/ml of the inhibitor peptide PS-AU-105 (polypeptide according to SEQ ID NO.:1), a combination of both or were left untreated. The incubation was performed in RPMI1640 with 10% fetal calf serum and 100 U/ml Streptomycin/Penicillin at 37°C. After the incubation, the cells were centrifugated and the supernatant was discarded. The cells were fixed with 4% paraformaldehyde for 5 minutes on ice and washed twice in PBS containing 1% FCS. After fixation the cells were stained using a fluorescein-conjugated antibody against CCR6 (R&D systems, Wiesbaden, FRG) and analyzed by flow cytometry (FACScalibur and Quantiquest; both Beckon Dickinson, Franklin Lakes, USA).
This CCL18 induced redaction of CCR6 expression is diminished in the presence of the inhibitor peptide PS-AU-105 (polypeptide according to SEQ ID No.: 1).

## PS-AU-105: inhibitor peptide, polypeptide according to SEQ ID NO.:1; 29 amino acids, artificial, peptide inhibitor of CCR6 (EDCCLVYTSWQIHPKFIVDYSETSPQCPK)
  CCL18 induced down-regulation of CCR6 expression: diminished; also recorded: fails to down-regulate the CCR6^+ sub-population
Listed as PS-AU-1015
  CCL18 induced down-regulation of CCR6 expression: this down-regulation docs not occur
Inhibitor 100 ng/ml alone
  CCR6 expression, inhibitor only: no effect
